Results from patent US11565003B2, “Mechanical opening of lipid bilayers by molecular nanomachines” (William Marsh Rice University, priority 2016, dated 2023).

Tests used:
[1] = test system: NIH 3T3 cells; experiment: UV-activated nanomechanical necrosis, live cell confocal microscopy, NIH 3T3; format: cell-based, mouse; details: for Time of Full Necrosis / Time of Initial Necrosis / % acceleration for full necrosis: 355 nm UV; for % acceleration for full necrosis: versus UV upon blank cells
Procedure: Following the synthetic bilipid vesicle experiments, nanomechanical action upon live cells was studied using confocal microscopy aided by a super-resolution technique called Phase Modulation Nanoscopy. Applicants used two experimental methods. In the first method (Method A), the molecular motors were loaded into the cell media and the imaging was initiated within 5 minutes to 24 hours. In the second method, (Method B), the molecular motors were loaded into the cell media, incubated for 30 minutes to 24 hours, and then washed three times with fresh molecular motor-free media before imaging. […]
(§1) Microscopy cells were seeded in untreated iBibi 100 μL live cell channels and allowed to grow to 40% to 60% confluence, at 37° C. in 5% CO2. At this stage, the medium was replaced and cells were treated with the studied nanomachines and co-stains as appropriate, with 0.1% DMSO (as detailed above) present in the final imaging medium. For live cell imaging, DMEM/F12 media (10% FBS) lacking phenol red was used from this point onwards. Following incubation, where Method B was used, the channels were washed with live cell imaging media and imaged using a purpose build incubator housing the microscope maintaining 37° C., 5% CO2 and 10% humidity.
(§2) All live cell imaging experiments used either NIH 3T3 mouse skin fibroblast cells, PC-3 cells, a grade 3 human prostate adenocarcinoma, or Chinese hamster ovary cells (CHO). These are all well-studied cell lines with discrete morphological compositions. Each molecular machine was used as a stock solution at 0.10 to 1.00 μM with total dimethyl sulfoxide (DMSO) concentrations not exceeding 0.1% in the final cell media in order to avoid unwanted cell membrane permeabilization, the DMSO being required for solubility of the organic nanomachines. All loading experiments are carried out in a light-suppressed manner and the possibility of induced or accelerated uptake due to interaction between the molecular motors and the applied co-stain has been eliminated using a series of individual and reversed loading experiments.
(§3) All experimental imaging parameters (i.e., laser beam size, confocal pinhole size, laser intensity, line scanning speed, scanning area (field of view, FOV), and line averaging sequences) were kept constant throughout the experiments. The accuracy and errors associated with the establishment of accelerated necrosis are determined based on one dual channel imaging sequence, which takes 15 seconds in total. This imaging sequence has been carefully established using untreated live cells.
(§4) Steady state fluorescence images were recorded using a PhMoNa enhanced Leica SP5 II LSCM equipped with a HCX PL APO 63×/1.40 NA LambdaBlue Oil immersion objective. As an initial control experiment to establish the UV-induced cell toxicity threshold, while mitigating voxel exposure and ensuring sufficient laser dwell time, an imaging sequence has been established to monitor cell morphological and physiological changes as a function of time. All experiments used cell-line-determined culture medium containing 0.1% DMSO.
The applied 100 Hz detection sequence was based on a bidirectional dual-channel continuous scanning method where a minimalistic non-damaging visible laser light (458 nm, 0.2 mW) is used in conjunction with the above detailed UV exposure. This is set as a 2 line/scan accumulation parallel acquisition sequence that is recorded as a function of time. Studied channels correspond to transmission images and UV-induced mitochondrial auto-fluorescence detected at 460 to 550 nm. Applicants further confirmed that the effectiveness of monitoring the UV-activated nanomechanical action on live cells using a conventional CW mercury-arc excitation source equipped with an epi-fluorescence setup consisting of a Zeiss Axiovert 200M inverted microscope, as discussed in FIGS. 18A-C. […]

[2] = test system: PC-3 cells; experiment: UV-activated nanomechanical necrosis, live cell confocal microscopy, PC-3; format: cell-based, human; details: for Time of Full Necrosis / Time of Initial Necrosis / % acceleration for full necrosis: 355 nm UV; for % acceleration for full necrosis: versus UV upon blank cells
Procedure: (§5) Following the synthetic bilipid vesicle experiments, nanomechanical action upon live cells was studied using confocal microscopy aided by a super-resolution technique called Phase Modulation Nanoscopy. Applicants used two experimental methods. In the first method (Method A), the molecular motors were loaded into the cell media and the imaging was initiated within 5 minutes to 24 hours. In the second method, (Method B), the molecular motors were loaded into the cell media, incubated for 30 minutes to 24 hours, and then washed three times with fresh molecular motor-free media before imaging.
Next, Applicants used the smaller nanomachine, 3. Initial control experiments (blank) were performed without nanomachines being present. UV-induced (355 nm) PC-3 necrosis is not initiated until approximately scan 20 (corresponding to 300 second continuous scanning UV exposure, 400 nJ/voxel total dwell time), characterized by massive disruption and rupture of the mitochondrial network and subsequent well-pronounced auto-fluorescent signal detectable in the nucleoli and nucleus wall (FIG. 7A). This is observable by the nucleoli membrane permeabilization and DNA damage at the onset of necrosis. The UV-induced necrosis reaches final stages at approximately scan 40 (corresponding to 600 seconds) that is consistent with characteristic extracellular membrane rupture and homogenous cytosolic auto-fluorescence, indicating loss of cellular organelle boundaries.
as §1, §2, §3
as §4, with “DMSO. […]” for “DMSO.”

[3] = test system: HEK293 cells; experiment: Whole cell patch clamp electrophysiology; format: cell-based, human
Procedure: FIGS. 16A-B show whole-cell patch clamp studies of the dynamic effects of UV-induced molecular mechanical action of compound 3 upon HEK293 cells. Also shown are control studies using compound 3 without UV activation, UV-exposed rotor-free control molecule 5, and no molecular additives x. Compounds 3 and 5 were used at 1.0 μM concentrations. […] Similarly, the rotor-free compound 5, and no molecular additive x, show no inward currents during UV illumination (center two traces). Cells were held at −70 mV in voltage clamp mode and UV exposure began 15 seconds after the start of the recording. Each recording is a biological replicate and all traces are shown (n=4 recordings from different cells for 3+UV; n=3 recordings from different cells for each other condition). […] The white arrows (lower right image) highlight membrane blebbing that appears only in the cells treated with UV-activated compound 3. The scale bar represents 10 μm and is applicable for each micrograph.
The dynamic effects of nanomechanical action upon cellular membranes were then studied through the whole cell patch clamp electrophysiology of human embryonic kidney 293 cells (HEK293) commonly used for electrophysiological interrogation. […] These inward currents were not observed in the absence of UV illumination or during UV illumination of non-rotor-bearing control 5 or UV illumination of untreated cells (FIG. 16A).

[4] = test system: NIH 3T3 cells; experiment: Uptake, localization and toxicity of fluorescent nanomachines without UV-light exposure; format: cell-based, mouse
Procedure: as §5
Applicants first studied the effect of the nanomachines on the cells without UV-light exposure. […] However, due to 1 and 2 having well-pronounced visible fluorescence properties corresponding to the cy5 and BODIPY addends (FIGS. 5A-B and Table 1, respectively), their intracellular uptake, motion or protein/organelle-assisted trafficking are clearly observed. The two luminescent compounds display very different localization patterns.
Applicants undertook a series of control experiments to confirm active molecular motor uptake and suspected endocytosis, using a range of nanomachine loading concentrations (0.10-1.00 μM, Method A) and incubation times of 5-60 minutes at 4° C., which is a temperature of general endocytosis inhibition.

[5] = NIH 3T3, Method B (washed three times)
[6] = PC-3, Method B (washed three times)

| SMILES | Time of Full Necrosis ([1]; NIH 3T3, Method A (no washing)) [s] | Time of Initial Necrosis ([1]; NIH 3T3, Method A (no washing)) [s] | % acceleration for full necrosis ([1]; NIH 3T3, Method A) [%] | Time of Full Necrosis ([2]; PC-3, Method A (no washing)) [s] | Time of Initial Necrosis ([2]; PC-3, Method A (no washing)) [s] | % acceleration for full necrosis ([2]; PC-3, Method A) [%] | Time of Full Necrosis [1, 5] [s] | Time of Initial Necrosis [1, 5] [s] | % acceleration for full necrosis ([1]; NIH 3T3, Method B) [%] | effect on necrosis upon standardized UV-exposure (in words) ([1]; NIH 3T3, Method A) | effect on necrosis upon standardized UV-exposure (in words) ([2]; PC-3, Method A) | further results |
| --- | --- | --- | --- | --- | --- | --- | --- | --- | --- | --- | --- | --- |
| Cc1ccc(S(=O)(=O)OCCC#Cc2ccc3c(c2)C(=C2c4c(ccc5ccccc45)C[C@H]2C)c2cc(C#CCCOS(=O)(=O)c4ccc(C)cc4)ccc2S3)cc1 (racemic) [Compound 4] | 540 | 270 | 10 | 540 | 270 | 10 |  |  |  |  |  |  |
| C[C@@H]1Cc2ccc3ccccc3c2C1=C1c2cc(C#CCCn3cc(CCC(=O)N[C@@H](CC(=O)O)C(=O)NCC(=O)N[C@@H](CCC(=O)O)C(=O)N[C@@H](C)C(N)=O)nn3)ccc2Sc2ccc(C#CCCn3cc(CCC(=O)N[C@@H](CC(=O)O)C(=O)NCC(=O)N[C@@H](CCC(=O)O)C(=O)N[C@@H](C)C(N)=O)nn3)cc21 [Compound 7] | 390 | 150 | 40 | 360 | 165 | 35 | 390 | 165 | 40 |  |  | selectivity for targeted PC-3 cells over non-targeted control cells (in words) ([2]; NIH 3T3 and CHO as non-targeted controls): No selectivity was observed; Time of Full Necrosis [2, 6]: 390 s; Time of Initial Necrosis [2, 6]: 180 s; % acceleration for full necrosis ([2]; PC-3, Method B): 35% |
| C[C@@H]1CSc2ccc3ccccc3c2C1=C1c2cc(C#CCCO)ccc2Sc2ccc(C#CCCO)cc21 (racemic) [Compound 6, reference compound] | 615 | 300 | 0 | 600 | 300 | 0 |  |  |  | no enhanced necrosis | no enhanced necrosis |  |
| OCCC#Cc1ccc2c(c1)C(=C1CCc3ccc4ccccc4c31)c1cc(C#CCCO)ccc1S2 [NonMe-3, reference compound] |  |  |  | 540 | 270 | 10 |  |  |  |  |  | effect on necrosis upon standardized UV-exposure (in words) ([2]; PC-3, Method A, listed as compound analogous to 3 but without the allylic methyl): only slightly faster than the motor-free system; effect on necrosis upon standardized UV-exposure (in words) ([2]; PC-3, Method A, listed as demethylated 3): slowed necrosis |
| O=c1c2cc(C#CCCO)ccc2sc2ccc(C#CCCO)cc12 [Compound 5, reference compound] | 600 | 300 | 0 | 600 | 300 | 0 |  |  |  | no effect on necrosis | no effect on necrosis | membrane currents without UV illumination (in words) ([3]; HEK293, 1.0 μM, 4 minute recording, no UV): no change in membrane currents; inward ionic currents during UV illumination (in words) ([3]; HEK293, Method B, UV 355 nm, 1.0 μM): not observed |
| CC1=CC(C)=[N+]2C1=C(c1ccccc1C(=O)OCc1cn(CCC#Cc3ccc4c(c3)C(=C3c5c(ccc6ccccc56)C[C@H]3C)c3cc(C#CCCn5cc(COC(=O)c6ccccc6C6=C7C(C)=CC(C)=[N+]7[B-](F)(F)n7c(C)cc(C)c76)nn5)ccc3S4)nn1)c1c(C)cc(C)n1[B-]2(F)F (racemic) [Compound 2] | 585 | 300 | 2.5 |  |  |  | 570 | 300 | 5 |  |  | localized fluorescence at 4° C. (endocytosis inhibition) (in words) ([4]; NIH 3T3, 0.10-1.00 μM, 5-60 minutes, 4° C.): no detectable localized fluorescence; intracellular localization without UV (in words) ([4]; NIH 3T3, Method A, 0.10-1.00 μM): enters the cell and localizes in the mitochondria; necrosis without UV-light exposure (in words) ([4]; NIH 3T3, Method A, no UV): do not induce accelerated necrosis; toxicity in the applied time and concentration regimes (in words) ([4]; NIH 3T3, no UV): non-toxic |
